Source: ChEMBL document CHEMBL5291721, “A preclinical secondary pharmacology resource illuminates target-adverse drug reaction associations of marketed drugs” (Nat Commun, 2023)

Columns and labels:
Motilin receptor = Motilin receptor (Homo sapiens, UniProt O43193)
Melanocortin receptor 4 = Melanocortin receptor 4 (Homo sapiens, UniProt P32245)
[1] = target: Beta-2 adrenergic receptor (Homo sapiens, UniProt P07550)
Adenosine receptor A1 = target: T1, Adenosine receptor A1 (Homo sapiens, UniProt P30542)
T1 sequence (P30542 whole entry): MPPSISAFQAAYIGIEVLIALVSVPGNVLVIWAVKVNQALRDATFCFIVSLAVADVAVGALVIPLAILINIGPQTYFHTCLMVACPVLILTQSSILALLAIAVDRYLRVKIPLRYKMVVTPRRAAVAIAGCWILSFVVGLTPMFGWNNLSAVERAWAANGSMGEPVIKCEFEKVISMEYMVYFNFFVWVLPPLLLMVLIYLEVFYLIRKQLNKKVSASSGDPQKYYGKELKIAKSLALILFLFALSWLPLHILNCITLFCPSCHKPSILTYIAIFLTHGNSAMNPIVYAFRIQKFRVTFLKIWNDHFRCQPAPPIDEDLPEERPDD

[2] = target: T2, Alpha-1A adrenergic receptor (Homo sapiens, UniProt P35348)
T2 sequence (P35348 whole entry): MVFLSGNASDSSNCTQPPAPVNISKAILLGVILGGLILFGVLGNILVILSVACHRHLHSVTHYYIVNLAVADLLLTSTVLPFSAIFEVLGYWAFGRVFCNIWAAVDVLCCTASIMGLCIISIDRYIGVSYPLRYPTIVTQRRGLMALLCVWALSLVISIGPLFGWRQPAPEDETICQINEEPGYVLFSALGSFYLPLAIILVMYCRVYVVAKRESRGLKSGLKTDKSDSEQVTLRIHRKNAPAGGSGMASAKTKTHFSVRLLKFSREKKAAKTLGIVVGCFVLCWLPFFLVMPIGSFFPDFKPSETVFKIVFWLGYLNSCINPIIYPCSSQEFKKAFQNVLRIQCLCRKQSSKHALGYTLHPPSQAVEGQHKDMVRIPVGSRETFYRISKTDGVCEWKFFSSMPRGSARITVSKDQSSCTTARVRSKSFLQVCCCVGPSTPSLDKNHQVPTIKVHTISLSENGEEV

Cannabinoid receptor 1 = Cannabinoid receptor 1 (Homo sapiens, UniProt P21554)
Chain of Cannabinoid receptor 1 (P21554 whole entry): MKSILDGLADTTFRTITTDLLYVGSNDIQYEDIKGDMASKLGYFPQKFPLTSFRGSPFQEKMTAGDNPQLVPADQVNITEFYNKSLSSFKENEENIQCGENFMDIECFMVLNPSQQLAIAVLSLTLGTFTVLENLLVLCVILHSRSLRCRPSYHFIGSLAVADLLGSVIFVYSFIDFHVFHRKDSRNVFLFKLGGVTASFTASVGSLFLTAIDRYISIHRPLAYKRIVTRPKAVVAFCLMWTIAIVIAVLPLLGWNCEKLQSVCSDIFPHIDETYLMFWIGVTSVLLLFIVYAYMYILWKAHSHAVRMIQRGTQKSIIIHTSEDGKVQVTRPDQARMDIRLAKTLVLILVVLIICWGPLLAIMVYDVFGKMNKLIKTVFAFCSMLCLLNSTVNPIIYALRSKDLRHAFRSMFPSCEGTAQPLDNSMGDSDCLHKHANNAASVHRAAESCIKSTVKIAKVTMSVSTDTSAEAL

[3] = target: T3, Alpha-2A adrenergic receptor (Homo sapiens, UniProt P08913); format: functional, cell-based
T3 sequence (P08913 whole entry): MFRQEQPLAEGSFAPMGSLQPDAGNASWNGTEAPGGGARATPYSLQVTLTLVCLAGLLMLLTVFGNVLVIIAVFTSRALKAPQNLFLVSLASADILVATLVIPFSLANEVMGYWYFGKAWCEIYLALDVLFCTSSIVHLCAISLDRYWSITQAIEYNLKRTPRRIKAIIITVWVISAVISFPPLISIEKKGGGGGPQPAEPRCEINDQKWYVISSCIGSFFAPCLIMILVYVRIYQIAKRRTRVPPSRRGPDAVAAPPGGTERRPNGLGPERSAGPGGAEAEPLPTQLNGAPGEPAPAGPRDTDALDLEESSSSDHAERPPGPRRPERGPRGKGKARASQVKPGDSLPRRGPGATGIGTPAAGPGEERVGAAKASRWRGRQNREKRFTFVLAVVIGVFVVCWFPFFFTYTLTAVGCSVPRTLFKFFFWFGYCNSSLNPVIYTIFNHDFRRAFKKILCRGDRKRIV

Mu-type opioid receptor = Mu-type opioid receptor (Homo sapiens, UniProt P35372)
Chain of Mu-type opioid receptor (P35372 whole entry): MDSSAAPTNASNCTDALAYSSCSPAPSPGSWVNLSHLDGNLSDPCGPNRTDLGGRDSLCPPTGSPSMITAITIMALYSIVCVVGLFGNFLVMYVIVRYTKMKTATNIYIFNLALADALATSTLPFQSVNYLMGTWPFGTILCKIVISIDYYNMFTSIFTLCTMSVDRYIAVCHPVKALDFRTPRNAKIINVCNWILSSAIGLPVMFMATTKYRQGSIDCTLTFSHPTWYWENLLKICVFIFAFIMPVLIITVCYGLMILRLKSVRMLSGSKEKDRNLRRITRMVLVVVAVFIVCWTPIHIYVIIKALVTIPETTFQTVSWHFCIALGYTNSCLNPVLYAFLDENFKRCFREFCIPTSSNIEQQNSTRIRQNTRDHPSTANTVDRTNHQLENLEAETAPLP

[4] = target: Sodium-dependent noradrenaline transporter (Homo sapiens, UniProt P23975)
Chain of Sodium-dependent noradrenaline transporter (P23975 whole entry): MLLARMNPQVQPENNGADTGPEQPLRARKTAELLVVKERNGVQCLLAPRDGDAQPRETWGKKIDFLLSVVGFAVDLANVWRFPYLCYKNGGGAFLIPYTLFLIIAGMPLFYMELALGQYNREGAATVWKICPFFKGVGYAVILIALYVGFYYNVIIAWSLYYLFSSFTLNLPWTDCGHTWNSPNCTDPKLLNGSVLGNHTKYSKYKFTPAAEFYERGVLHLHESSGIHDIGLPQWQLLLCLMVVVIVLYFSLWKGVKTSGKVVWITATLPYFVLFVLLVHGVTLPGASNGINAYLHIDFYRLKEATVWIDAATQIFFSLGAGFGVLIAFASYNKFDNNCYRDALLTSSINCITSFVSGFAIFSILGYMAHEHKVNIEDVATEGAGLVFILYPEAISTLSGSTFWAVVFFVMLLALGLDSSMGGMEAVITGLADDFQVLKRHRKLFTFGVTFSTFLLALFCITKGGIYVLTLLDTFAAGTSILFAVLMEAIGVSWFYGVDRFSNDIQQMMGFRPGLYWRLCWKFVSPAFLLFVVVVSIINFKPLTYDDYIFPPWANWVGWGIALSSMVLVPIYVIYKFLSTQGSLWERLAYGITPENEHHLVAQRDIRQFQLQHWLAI

Vasopressin V1a receptor = Vasopressin V1a receptor (Homo sapiens, UniProt P37288)
Chain of Vasopressin V1a receptor (P37288 whole entry): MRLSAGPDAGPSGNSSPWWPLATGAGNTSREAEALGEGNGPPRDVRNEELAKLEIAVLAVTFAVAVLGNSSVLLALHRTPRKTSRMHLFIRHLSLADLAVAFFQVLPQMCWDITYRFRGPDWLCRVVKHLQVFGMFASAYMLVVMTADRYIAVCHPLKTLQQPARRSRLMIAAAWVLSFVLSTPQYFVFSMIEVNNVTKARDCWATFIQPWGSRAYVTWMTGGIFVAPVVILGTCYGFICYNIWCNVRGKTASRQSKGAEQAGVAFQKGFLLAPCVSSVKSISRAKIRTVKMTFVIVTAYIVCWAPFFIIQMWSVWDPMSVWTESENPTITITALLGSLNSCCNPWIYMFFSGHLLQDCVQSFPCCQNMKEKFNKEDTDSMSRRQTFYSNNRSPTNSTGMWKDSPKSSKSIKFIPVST

[5] = target: T2, Alpha-1A adrenergic receptor; format: functional, cell-based
Estrogen receptor = target: T4, Estrogen receptor (Homo sapiens, UniProt P03372)
T4 sequence (P03372 whole entry): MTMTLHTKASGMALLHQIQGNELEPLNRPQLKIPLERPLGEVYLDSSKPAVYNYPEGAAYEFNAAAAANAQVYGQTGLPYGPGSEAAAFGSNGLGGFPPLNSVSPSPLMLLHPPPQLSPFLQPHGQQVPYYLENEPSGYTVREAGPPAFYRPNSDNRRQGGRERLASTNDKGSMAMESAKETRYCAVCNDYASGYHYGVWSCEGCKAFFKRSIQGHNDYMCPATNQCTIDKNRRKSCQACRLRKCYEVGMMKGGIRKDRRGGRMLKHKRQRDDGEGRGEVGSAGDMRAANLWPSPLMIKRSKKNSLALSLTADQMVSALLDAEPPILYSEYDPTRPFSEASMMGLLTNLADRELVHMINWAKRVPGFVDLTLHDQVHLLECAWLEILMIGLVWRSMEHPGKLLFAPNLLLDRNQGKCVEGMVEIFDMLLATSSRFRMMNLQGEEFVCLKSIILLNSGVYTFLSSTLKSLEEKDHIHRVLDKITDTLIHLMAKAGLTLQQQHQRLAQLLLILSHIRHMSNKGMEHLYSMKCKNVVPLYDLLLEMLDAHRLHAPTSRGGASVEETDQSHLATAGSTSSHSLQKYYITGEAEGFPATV
Also: assay procedure not described here.

Chain of Melanocortin receptor 4 (P32245 whole entry): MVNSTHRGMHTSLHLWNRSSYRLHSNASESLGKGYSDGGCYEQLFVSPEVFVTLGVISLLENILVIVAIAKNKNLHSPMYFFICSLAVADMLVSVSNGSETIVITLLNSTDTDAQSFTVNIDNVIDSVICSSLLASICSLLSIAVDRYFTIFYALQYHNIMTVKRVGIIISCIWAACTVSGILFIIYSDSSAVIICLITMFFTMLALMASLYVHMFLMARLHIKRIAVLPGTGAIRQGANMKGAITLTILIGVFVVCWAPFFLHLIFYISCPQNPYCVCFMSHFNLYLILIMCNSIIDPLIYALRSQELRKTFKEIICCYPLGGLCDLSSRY
Chain of Motilin receptor (O43193 whole entry): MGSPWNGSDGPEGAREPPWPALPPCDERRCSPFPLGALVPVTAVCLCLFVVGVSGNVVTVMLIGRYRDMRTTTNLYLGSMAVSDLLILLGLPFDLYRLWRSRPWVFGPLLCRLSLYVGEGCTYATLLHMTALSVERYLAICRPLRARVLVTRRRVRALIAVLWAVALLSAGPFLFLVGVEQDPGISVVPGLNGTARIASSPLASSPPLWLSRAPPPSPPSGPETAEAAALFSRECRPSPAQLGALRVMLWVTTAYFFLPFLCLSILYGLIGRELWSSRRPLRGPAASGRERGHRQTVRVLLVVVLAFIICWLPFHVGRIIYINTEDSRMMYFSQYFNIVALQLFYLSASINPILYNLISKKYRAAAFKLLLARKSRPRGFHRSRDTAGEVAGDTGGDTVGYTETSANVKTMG
Chain of Beta-2 adrenergic receptor (P07550 whole entry): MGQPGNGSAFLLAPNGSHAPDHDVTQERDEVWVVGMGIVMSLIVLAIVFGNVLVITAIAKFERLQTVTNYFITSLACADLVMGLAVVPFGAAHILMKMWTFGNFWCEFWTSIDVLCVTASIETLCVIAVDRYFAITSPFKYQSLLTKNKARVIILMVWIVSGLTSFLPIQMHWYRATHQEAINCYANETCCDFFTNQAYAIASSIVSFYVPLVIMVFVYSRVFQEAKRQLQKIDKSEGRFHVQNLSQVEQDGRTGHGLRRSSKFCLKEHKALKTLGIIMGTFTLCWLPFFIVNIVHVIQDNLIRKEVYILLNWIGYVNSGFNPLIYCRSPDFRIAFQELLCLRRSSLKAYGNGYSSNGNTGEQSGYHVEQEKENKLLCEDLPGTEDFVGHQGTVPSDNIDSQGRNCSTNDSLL

SMILES | AC50 (Motilin receptor) [µM] | AC50 (Melanocortin receptor 4) [µM] | AC50 [1] [µM] | AC50 (Adenosine receptor A1) [µM] | AC50 [2] [µM] | AC50 (Cannabinoid receptor 1) [µM] | AC50 [3] [µM] | AC50 (Mu-type opioid receptor) [µM] | AC50 [4] [µM] | AC50 (Vasopressin V1a receptor) [µM] | AC50 [5] [µM] | AC50 (Estrogen receptor) [µM]
O=C(NCCN1CCOCC1)c1ccc(Cl)cc1 [MOCLOBEMIDE] | > 10 | > 10 | > 10 | > 10 | > 10 | > 10 | > 10 | > 30 | > 10 |  |  | 
CCCCCCOc1ccccc1C(N)=O [EXALAMIDE] | > 30 |  | > 30 | > 30 |  |  | > 30 |  | > 30 | > 30 | > 30 | > 30
Cc1cccc(C(C)c2cnc[nH]2)c1C (stereo not drawn) [MEDETOMIDINE] | > 30 | > 30 | > 30 | > 30 | 0.11 | > 30 |  | > 30 | > 30 | > 30 |  | 
COc1cc2c(N)nc(N3CCN(C(=O)OCC(C)(C)O)CC3)nc2c(OC)c1OC [TRIMAZOSIN] | > 30 |  | > 30 | > 30 | 1.8 |  | > 30 |  | > 30 | > 30 | 1.2 | > 30
O=C(O)CCCCCCCC(=O)O [AZELAIC ACID] | > 10 | > 10 | > 10 | > 10 | > 30 | > 10 | > 10 | > 30 | > 10 | > 10 |  | 
COc1ccc2c3c1O[C@H]1C(=O)CC[C@@]4(O)[C@@H](C2)N(C)CC[C@]314 [OXYCODONE] | > 30 |  | > 30 | > 30 |  |  | > 30 |  | > 30 | > 30 | > 30 | > 30
COC(=O)C1=C(C)NC(C)=C(C(=O)OC2CCCN(Cc3ccccc3)C2)C1c1cccc([N+](=O)[O-])c1 (stereo not drawn) [BENIDIPINE] | 3.5 |  | > 30 | > 30 | 3 |  | > 30 |  | 13 | > 30 |  | > 30
Cc1cc(O)c(C(=O)N[C@@H](C(=O)N[C@@H]2C(=O)N3C(C(=O)O)=C(CSc4nnnn4C)CS[C@H]23)c2ccc(O)cc2)cn1 [CEFPIRAMIDE] | > 30 | > 30 | > 30 | > 30 | > 30 | > 30 | > 30 |  | > 30 | > 30 |  | > 30
CC(C(=O)O)c1ccc(N2Cc3ccccc3C2=O)cc1 (stereo not drawn) [INDOPROFEN] | > 30 |  | > 30 | > 30 | > 30 | > 30 | > 30 | > 30 | > 30 | > 30 | > 30 | > 30
C[C@](N)(Cc1ccc(O)c(O)c1)C(=O)O [METHYLDOPA] | > 10 | > 10 | > 10 | > 30 | 7.1 | > 10 | > 10 | > 30 | > 10 |  |  | 
COC(=O)C1=C(C)NC(C)=C(C(=O)OC(C)(C)CN(C)CCC(c2ccccc2)c2ccccc2)C1c1cccc([N+](=O)[O-])c1 (stereo not drawn) [LERCANIDIPINE] | 12.6 | > 30 | > 30 | > 30 | 5.7 | 6.6 | > 30 |  | > 30 | > 30 |  | > 30
C[C@]12CC[C@H]3[C@@H](CCC4=CC(=O)CC[C@@]43C)[C@@H]1CC[C@@H]2O [TESTOSTERONE] | > 10 | > 10 | > 10 | > 10 | > 30 | > 10 | > 10 | > 30 | > 10 |  |  | 
CNS(=O)(=O)Cc1ccc2[nH]cc(CCN(C)C)c2c1 | > 10 | > 30 | > 10 | > 30 | > 30 |  | > 30 | > 10 | > 10 | > 10 | > 30 | 
O=C(O)CCCCCCNC1c2ccccc2CCc2ccccc21 [AMINEPTINE] | > 30 |  | > 30 | > 30 |  |  | > 30 |  | > 30 | > 30 | > 30 | > 30
CCCC(=O)O[C@]1(C(=O)CO)CC[C@H]2[C@@H]3CCC4=CC(=O)CC[C@]4(C)[C@H]3[C@@H](O)C[C@@]21C [HYDROCORTISONE BUTYRATE] | > 10 | > 10 | > 10 | > 10 | > 10 | > 10 | > 10 | > 30 | > 10 | > 10 |  | 
CC(C)=CCC/C(C)=C/C=C/C(C)=C/C=C/C(C)=C/C=C/C=C(C)/C=C/C=C(C)/C=C/C=C(\C)CCC=C(C)C [LYCOPENE] | > 30 |  | > 30 | > 30 |  | > 30 | > 30 |  | > 30 | > 30 | > 30 | > 10
C[C@]1(O)CC[C@H]2[C@@H]3CCC4=CC(=O)CC[C@]4(C)[C@@]3(F)[C@@H](O)C[C@@]21C [FLUOXYMESTERONE] | > 10 | > 10 | > 10 | > 10 | > 30 | > 10 | > 10 | > 30 | > 10 | > 10 |  | 
Nc1nc(/C(=C/CC(=O)O)C(=O)N[C@@H]2C(=O)N3C(C(=O)O)=CCS[C@H]23)cs1 [CEFTIBUTEN] | > 30 | > 30 | > 30 | > 30 |  | > 30 | > 30 |  | > 30 | > 30 | > 30 | > 30
C#C[C@]1(O)CC[C@H]2[C@@H]3CCc4cc(OC5CCCC5)ccc4[C@H]3CC[C@@]21C [QUINESTROL] | > 10 | > 10 | > 10 | > 10 | > 10 | > 10 | > 10 | > 30 | > 10 | > 10 |  | 
CN1CCN(CC/C=C2/c3ccccc3Sc3ccc(S(=O)(=O)N(C)C)cc32)CC1 [THIOTHIXENE] | > 10 | > 30 | > 10 | > 30 | 0.0244 |  | 5.9 | > 10 | > 10 | > 10 | 0.31 | > 30
